Legend:
[1] = biological target: T1, Thromboxane-A synthase (Homo sapiens, UniProt P24557); assay: biochemical; assay type: tissue-based, Platelet;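 also: enzyme inhibition assay with PGH2 supplied as substrate; in other assays of this panel Not Active means under 50% inhibition at 10 µM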
T1 sequence (P24557 whole entry): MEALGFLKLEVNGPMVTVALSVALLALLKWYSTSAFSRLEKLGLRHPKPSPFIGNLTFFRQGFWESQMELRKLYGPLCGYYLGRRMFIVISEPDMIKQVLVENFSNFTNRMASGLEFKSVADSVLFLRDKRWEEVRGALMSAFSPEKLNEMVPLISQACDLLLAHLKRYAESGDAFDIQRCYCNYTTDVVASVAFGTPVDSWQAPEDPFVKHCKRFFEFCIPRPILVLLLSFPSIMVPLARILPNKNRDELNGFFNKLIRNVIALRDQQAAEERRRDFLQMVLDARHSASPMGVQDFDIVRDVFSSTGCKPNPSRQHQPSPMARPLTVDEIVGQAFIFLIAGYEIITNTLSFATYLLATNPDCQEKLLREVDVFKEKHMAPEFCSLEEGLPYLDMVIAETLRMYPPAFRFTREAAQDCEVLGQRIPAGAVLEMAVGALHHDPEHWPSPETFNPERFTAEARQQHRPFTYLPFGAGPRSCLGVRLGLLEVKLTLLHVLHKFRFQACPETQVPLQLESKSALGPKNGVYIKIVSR

[2] = DRUGMATRIX: Glutamate, AMPA radioligand binding (ligand: [3H] AMPA); assay type: cell membranes, Rattus norvegicus, Wistar, Cerebral cortex, Membrane; conditions: Not Active = under 50% inhibition at 10 µM
[3] = biological target: T2, Neuropeptide Y receptor type 1 (Homo sapiens, UniProt P25929); assay type: cell membranes, Membrane; conditions: sk-n-mc; also: in other assays of this panel Not Active means under 50% inhibition at 10 µM
T2 sequence (P25929 whole entry): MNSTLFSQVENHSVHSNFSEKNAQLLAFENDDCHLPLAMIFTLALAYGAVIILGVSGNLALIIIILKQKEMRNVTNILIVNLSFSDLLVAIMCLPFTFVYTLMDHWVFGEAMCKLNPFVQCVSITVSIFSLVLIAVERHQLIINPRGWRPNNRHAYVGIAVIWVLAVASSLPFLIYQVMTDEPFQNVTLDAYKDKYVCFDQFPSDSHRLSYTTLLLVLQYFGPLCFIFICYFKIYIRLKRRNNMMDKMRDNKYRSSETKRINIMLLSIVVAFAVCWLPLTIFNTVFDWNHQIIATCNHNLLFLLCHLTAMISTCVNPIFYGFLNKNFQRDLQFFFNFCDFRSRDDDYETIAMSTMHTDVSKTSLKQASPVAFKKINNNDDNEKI

[4] = biological target: T3, Angiotensin-converting enzyme (Oryctolagus cuniculus, UniProt P12822); assay type: tissue-based, Lung;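 also: enzymatic inhibition of angiotensin-converting enzyme measured with FAPGG as the substrate; in other assays of this panel Not Active means under 50% inhibition at 10 µM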
T3 sequence (P12822 whole entry): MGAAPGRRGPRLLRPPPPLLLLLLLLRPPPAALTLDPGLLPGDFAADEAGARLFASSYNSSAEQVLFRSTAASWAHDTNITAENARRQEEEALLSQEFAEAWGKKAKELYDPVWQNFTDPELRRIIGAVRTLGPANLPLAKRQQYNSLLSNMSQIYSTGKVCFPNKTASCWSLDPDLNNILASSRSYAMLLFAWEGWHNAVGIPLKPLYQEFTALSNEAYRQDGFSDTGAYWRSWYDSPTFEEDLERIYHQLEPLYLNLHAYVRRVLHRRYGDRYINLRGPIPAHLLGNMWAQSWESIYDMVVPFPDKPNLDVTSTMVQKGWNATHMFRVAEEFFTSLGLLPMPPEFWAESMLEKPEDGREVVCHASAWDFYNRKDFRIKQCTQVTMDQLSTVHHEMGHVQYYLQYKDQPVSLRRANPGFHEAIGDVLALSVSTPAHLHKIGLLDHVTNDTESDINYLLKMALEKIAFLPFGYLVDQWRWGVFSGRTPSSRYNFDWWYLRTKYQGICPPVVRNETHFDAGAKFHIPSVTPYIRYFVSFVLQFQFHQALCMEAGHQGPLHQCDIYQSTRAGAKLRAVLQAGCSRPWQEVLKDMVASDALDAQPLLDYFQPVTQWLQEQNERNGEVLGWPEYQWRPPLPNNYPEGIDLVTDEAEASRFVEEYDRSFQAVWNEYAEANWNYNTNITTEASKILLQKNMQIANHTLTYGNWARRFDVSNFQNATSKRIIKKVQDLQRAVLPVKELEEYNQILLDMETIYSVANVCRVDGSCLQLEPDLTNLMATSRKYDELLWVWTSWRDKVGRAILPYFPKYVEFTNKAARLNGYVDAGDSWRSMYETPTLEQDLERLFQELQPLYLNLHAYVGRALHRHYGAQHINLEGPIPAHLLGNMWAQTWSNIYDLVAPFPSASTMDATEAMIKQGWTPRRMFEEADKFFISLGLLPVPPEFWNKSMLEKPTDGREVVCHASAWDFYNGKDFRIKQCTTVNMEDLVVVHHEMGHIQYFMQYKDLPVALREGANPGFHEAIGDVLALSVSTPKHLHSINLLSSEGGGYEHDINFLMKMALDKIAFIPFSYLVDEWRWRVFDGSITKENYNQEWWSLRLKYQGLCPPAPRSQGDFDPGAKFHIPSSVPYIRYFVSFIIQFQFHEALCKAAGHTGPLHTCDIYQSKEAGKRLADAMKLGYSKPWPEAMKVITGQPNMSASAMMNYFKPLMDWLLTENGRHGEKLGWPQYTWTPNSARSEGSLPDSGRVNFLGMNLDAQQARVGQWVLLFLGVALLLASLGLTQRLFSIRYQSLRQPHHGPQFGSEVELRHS

[5] = biological target: Matrix metalloproteinase-9 (Homo sapiens, UniProt P14780); assay: biochemical; assay type: cell-based;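 also: inhibition of isolated MMP-9 enzyme activity toward a synthetic peptide substrate, from the DrugMatrix protease screening panel; in other assays of this panel Not Active means under 50% inhibition at 10 µM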
Sequence of Matrix metalloproteinase-9 (P14780 whole entry): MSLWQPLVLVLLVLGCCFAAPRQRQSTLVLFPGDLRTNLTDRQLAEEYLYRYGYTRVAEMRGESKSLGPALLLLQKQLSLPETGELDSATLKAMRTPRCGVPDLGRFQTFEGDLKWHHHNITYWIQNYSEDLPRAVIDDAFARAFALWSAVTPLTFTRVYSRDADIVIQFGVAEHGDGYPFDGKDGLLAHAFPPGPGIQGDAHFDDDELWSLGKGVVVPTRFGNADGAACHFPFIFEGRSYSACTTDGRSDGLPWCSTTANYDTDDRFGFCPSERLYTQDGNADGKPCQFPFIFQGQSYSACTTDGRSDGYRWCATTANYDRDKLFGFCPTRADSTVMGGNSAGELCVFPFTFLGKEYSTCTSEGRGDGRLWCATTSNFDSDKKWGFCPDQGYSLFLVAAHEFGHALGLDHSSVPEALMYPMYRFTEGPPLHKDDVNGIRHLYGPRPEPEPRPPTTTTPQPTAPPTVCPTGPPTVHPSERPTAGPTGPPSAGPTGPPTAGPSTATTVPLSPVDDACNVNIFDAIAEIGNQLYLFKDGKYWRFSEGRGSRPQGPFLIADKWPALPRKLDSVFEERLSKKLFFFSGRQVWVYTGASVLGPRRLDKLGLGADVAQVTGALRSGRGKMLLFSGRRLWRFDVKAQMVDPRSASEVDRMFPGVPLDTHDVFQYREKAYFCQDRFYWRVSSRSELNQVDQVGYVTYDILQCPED

[6] = biological target: Cytochrome P450 2C19 (Homo sapiens, UniProt P33261); conditions: bti-tn-5b1-4; also: in other assays of this panel Not Active means under 50% inhibition at 10 µM
Sequence of Cytochrome P450 2C19 (P33261 whole entry): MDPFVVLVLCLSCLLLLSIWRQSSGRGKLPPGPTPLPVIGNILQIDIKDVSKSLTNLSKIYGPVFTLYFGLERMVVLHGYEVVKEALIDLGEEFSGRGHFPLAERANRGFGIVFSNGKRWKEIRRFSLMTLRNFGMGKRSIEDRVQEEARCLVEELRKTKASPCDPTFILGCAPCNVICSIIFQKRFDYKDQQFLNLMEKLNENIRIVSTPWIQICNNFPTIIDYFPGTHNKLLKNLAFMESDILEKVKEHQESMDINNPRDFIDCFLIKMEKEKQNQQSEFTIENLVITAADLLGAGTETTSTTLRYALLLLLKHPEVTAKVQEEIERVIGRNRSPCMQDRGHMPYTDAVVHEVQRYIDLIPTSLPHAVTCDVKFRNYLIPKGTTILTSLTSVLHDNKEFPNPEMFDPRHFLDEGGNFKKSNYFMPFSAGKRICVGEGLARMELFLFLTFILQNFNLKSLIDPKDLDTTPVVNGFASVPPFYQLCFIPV

[7] = biological target: Cytochrome P450 2D6 (Homo sapiens, UniProt P10635); conditions: bti-tn-5b1-4; also: in other assays of this panel Not Active means under 50% inhibition at 10 µM
Sequence of Cytochrome P450 2D6 (P10635 whole entry): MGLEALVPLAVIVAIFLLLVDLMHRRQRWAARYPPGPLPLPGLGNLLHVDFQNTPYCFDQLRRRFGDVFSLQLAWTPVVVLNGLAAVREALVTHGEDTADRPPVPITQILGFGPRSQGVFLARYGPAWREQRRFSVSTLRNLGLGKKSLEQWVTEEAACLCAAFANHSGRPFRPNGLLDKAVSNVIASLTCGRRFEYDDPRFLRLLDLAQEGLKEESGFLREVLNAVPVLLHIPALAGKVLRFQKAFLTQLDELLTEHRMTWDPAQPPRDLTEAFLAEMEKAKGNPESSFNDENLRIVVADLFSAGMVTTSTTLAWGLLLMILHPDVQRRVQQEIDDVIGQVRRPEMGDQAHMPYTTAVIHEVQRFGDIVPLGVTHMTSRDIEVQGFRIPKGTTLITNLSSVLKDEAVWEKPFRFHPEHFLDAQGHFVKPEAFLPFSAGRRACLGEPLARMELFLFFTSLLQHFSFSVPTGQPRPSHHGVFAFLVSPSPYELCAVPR

Row | Compound | IC50 ([1]; platelet) | IC50 [2] | Ki [2] | IC50 [3] | IC50 [4] | IC50 [5] | IC50 [6] | Ki [6] | IC50 [7] | Ki [7] | IC50 ([1]; read-out: IC50)
1 | O=c1oc2ccccc2c(O)c1Cc1c(O)c2ccccc2oc1=O [DICUMAROL] | Not Active | Not Active | Not Active | Not Active | Not Active | Not Active | Not Active | Not Active | Not Active | Not Active | –
2 | C[C@H]1O[C@@H](O[C@H]2[C@@H](O)C[C@H](O[C@H]3[C@@H](O)C[C@H](O[C@H]4CC[C@@]5(C)[C@H](CC[C@@H]6[C@@H]5C[C@@H](O)[C@]5(C)[C@@H](C7=CC(=O)OC7)CC[C@]65O)C4)O[C@@H]3C)O[C@@H]2C)C[C@H](O)[C@@H]1O [DIGOXIN] | Not Active | Not Active | Not Active | Not Active | Not Active | Not Active | Not Active | Not Active | Not Active | Not Active | –
3 | CC(=O)O[C@@]12CO[C@@H]1C[C@H](O)[C@@]1(C)C(=O)[C@H](O)C3=C(C)[C@@H](OC(=O)[C@H](O)[C@@H](NC(=O)OC(C)(C)C)c4ccccc4)C[C@@](O)([C@@H](OC(=O)c4ccccc4)[C@H]21)C3(C)C.O.O.O [DOCETAXEL] | Not Active | Not Active | Not Active | Not Active | Not Active | Not Active | Not Active | Not Active | Not Active | Not Active | –
4 | COc1cc2nc(N3CCN(C(=O)C4COc5ccccc5O4)CC3)nc(N)c2cc1OC (stereo not given) [DOXAZOSIN] | Not Active | Not Active | Not Active | Not Active | Not Active | Not Active | Not Active | Not Active | Not Active | Not Active | –
5 | C[C@H]1c2cccc(O)c2C(=O)C2=C(O)[C@]3(O)C(=O)C(C(N)=O)=C(O)[C@@H](N(C)C)[C@@H]3[C@@H](O)[C@@H]21.O [DOXYCYCLINE] | Not Active | Not Active | Not Active | Not Active | Not Active | Not Active | Not Active | Not Active | Not Active | Not Active | –
6 | O=C(CCCN1CC=C(n2c(=O)[nH]c3ccccc32)CC1)c1ccc(F)cc1 [DROPERIDOL] | Not Active | Not Active | Not Active | Not Active | Not Active | Not Active | Not Active | Not Active | Not Active | Not Active | –
7 | CC(C)[C@H]1C(=O)N2CCC[C@H]2[C@]2(O)O[C@](NC(=O)[C@@H]3C=C4c5cccc6[nH]cc(c56)C[C@H]4N(C)C3)(C(C)C)C(=O)N12 [ERGOCORNINE] | – | Not Active | Not Active | Not Active | Not Active | Not Active | Not Active | Not Active | Not Active | Not Active | 1990 nM
8 | OC(Cn1cncn1)(Cn1cncn1)c1ccc(F)cc1F [FLUCONAZOLE] | Not Active | Not Active | Not Active | Not Active | Not Active | Not Active | Not Active | Not Active | Not Active | Not Active | –
9 | CC(C)C(=O)Nc1ccc([N+](=O)[O-])c(C(F)(F)F)c1 [FLUTAMIDE] | Not Active | Not Active | Not Active | Not Active | Not Active | Not Active | Not Active | Not Active | Not Active | Not Active | –
10 | CC1(C)O[C@@H]2C[C@H]3[C@@H]4CCC5=CC(=O)CC[C@]5(C)[C@@]4(F)[C@@H](O)C[C@]3(C)[C@]2(C(=O)CCl)O1 [HALCINONIDE] | Not Active | Not Active | Not Active | Not Active | Not Active | Not Active | Not Active | Not Active | Not Active | Not Active | –
11 | O=c1[nH]c(=O)n([C@H]2C[C@H](O)[C@@H](CO)O2)cc1I [IDOXURIDINE] | Not Active | Not Active | Not Active | Not Active | Not Active | Not Active | Not Active | Not Active | Not Active | Not Active | –
12 | CC1Cc2ccccc2N1NC(=O)c1ccc(Cl)c(S(N)(=O)=O)c1 (stereo not given) [INDAPAMIDE] | Not Active | Not Active | Not Active | Not Active | Not Active | Not Active | Not Active | Not Active | Not Active | Not Active | –
13 | Nc1nc(N)nc(-c2cc(Cl)ccc2Cl)n1.O=C(O)/C=C\C(=O)O [IRSOGLADINE MALEATE] | Not Active | Not Active | Not Active | Not Active | Not Active | Not Active | Not Active | Not Active | Not Active | Not Active | –
14 | CCC(C)n1ncn(-c2ccc(N3CCN(c4ccc(OCC5COC(Cn6cncn6)(c6ccc(Cl)cc6Cl)O5)cc4)CC3)cc2)c1=O (stereo not given) [ITRACONAZOLE] | Not Active | Not Active | Not Active | Not Active | Not Active | Not Active | Not Active | Not Active | Not Active | Not Active | –
15 | CCCCc1nc(Cl)c(CO)n1Cc1ccc(-c2ccccc2-c2nnn[nH]2)cc1 [LOSARTAN] | Not Active | Not Active | Not Active | Not Active | Not Active | Not Active | Not Active | Not Active | Not Active | Not Active | –
16 | Sc1ncnc2nc[nH]c12 [MERCAPTOPURINE ANHYDROUS] | Not Active | Not Active | Not Active | Not Active | Not Active | Not Active | Not Active | Not Active | Not Active | Not Active | –
17 | C[C@](N)(Cc1ccc(O)c(O)c1)C(=O)O [METHYLDOPA] | Not Active | Not Active | Not Active | Not Active | Not Active | Not Active | Not Active | Not Active | Not Active | Not Active | –

Reference: ChEMBL document CHEMBL1909046, “DrugMatrix in vitro pharmacology data”
